The test system of assay [1] is THP1-Dual cells (Lucia luciferase under ISG54 promoter). Briefly: THP-1 Dual Lucia reporter gene assay. Particulars: luminescence signal induction, 20 hours at 37° C. Type of assay: cell-based, human. The method, then: THP1-Dual™ cells (InvivoGen #thpd-nfis) were derived from the human THP-1 monocyte cell line by stable integration of the Lucia luciferase gene, a secreted luciferase reporter gene, under the control of an ISG54 (interferon-stimulated gene) minimal promoter in conjunction with five interferon (IFN)-stimulated response elements. On the day of experiment, the cells were plated to a black, 384-well plate (Corning 356697) at 7500 cells/25 μl per well density in growth media (RPMI 1640, 2 mM L-glutamine, 25 mM HEPES, 10% heat-inactivated fetal bovine serum, 100 μg/mL Normocin™, 50 U/mL-50 μg/mL Pen-Strep, 10 μg/mL of blasticidin, and 100 μg/mL of Zeocin). The cell plates were dosed with 62.5 nL of the testing compounds, and then incubated at 37° C. for 20 hours. At the end of the incubation, 15 μL/well of the QUANTI-Luc™ (InvivoGen #rep-qlc1) were added, and luminescence was measured immediately using the LeadSeeker.
For the assay method described above, test compound percent luminescence signal induction, at various concentrations, was calculated relative to untreated and DMSO only treated samples. Compound concentration versus percent signal induction curves were fitted to generate EC50 values. One skilled in the art will appreciate that the values generated as EC50 values are subject to experimental variation.

The target of another assay is Human STING (Homo sapiens (Human), UniProt Q86WV6, H232R). Nature of the assay: Human STING TR-FRET assay. Type of assay: binding. To be noted: human STING residues 140-379 (H232R), 100 nM; fluorescein labeled ligand 100 nM; 60 minutes at rt. The method, then:
Human STING (accession number GB:BC047779) DNA encoding residues 140-379 (H232R) was cloned into pET28 as N-terminal HIS and C-terminal Avi tagged fusion protein, and a rTEV cleavage site between HIS tag and STING. The sequence was verified before recombinant protein expression using E. coli expression system.
For expression, STING expression vector was transformed into BL21(DE3) cells. The expression was induced by adding IPTG and expressing in 16° C. for 20 hours.
For purification, STING was purified by Nickel affinity resin (Thermo Scientific #25215), followed by TEV enzyme cleavage and Superdex 200 column (GE Healthcare #28-9893-35) purification. For site directed in vitro biotinylation, purified Avi-tagged STING protein was incubated with Biotin (SUPELCO #47868), ATP (SIGMA #A-7699) and BirA enzyme, followed by further purification through a Superdex 200 column (GE Healthcare #28-9893-35). Biotinylation was confirmed by Mass Spectrometry analysis.
40 nL of test compounds in DMSO were added to wells in a white, 384 well microtitre plate (Greiner 784075). 2 uL STING assay buffer (PBS and 0.01% BSA) containing fluorescein labeled ligand (c[G(2′,5′)p-2′-Fluo-AHC-A(3′,5′)p]-Biolog C 195, 100 nM final) and Tb labeled Streptavidin (Streptavidin-Tb cryptate-CisBio 610SATLB) were added. Then 2 uL STING assay buffer containing STING protein (100 nM final) was added and the mixture was incubated at rt for 60 minutes. The plates were then read on a BMG PheraStar Plus reader (LanthaScreen module).
For the assay method described above, test compound percent inhibition, at various concentrations, was calculated relative to untreated and DMSO only treated samples. Compound concentration versus percent inhibition curves were fitted to generate IC50 values. One skilled in the art will appreciate that the values generated either as percentage inhibition at a single concentration or IC50 values are subject to experimental variation.

A value given as a limit tells only on which side of the number the result lay.

Chain of Human STING (Q86WV6 140-379 H232R): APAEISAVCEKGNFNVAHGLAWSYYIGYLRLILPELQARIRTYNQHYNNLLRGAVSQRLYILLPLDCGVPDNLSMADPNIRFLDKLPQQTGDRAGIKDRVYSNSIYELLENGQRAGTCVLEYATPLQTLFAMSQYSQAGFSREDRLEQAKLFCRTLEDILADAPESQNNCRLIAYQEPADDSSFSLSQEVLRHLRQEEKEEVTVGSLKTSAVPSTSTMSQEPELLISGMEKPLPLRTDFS

In assay [1] (Homo sapiens, THP1-Dual, 20 h), `Nc1nc2c(ncn2[C@@H]2O[C@@H]3COP(=O)(S)O[C@H]4C[C@H](Oc5ccncn5)C[C@@H]4CNS(=O)(=O)O[C@@H]2C3)c(=O)[nH]1` (single isomer, unassigned) [Compound I-1] showed an EC50 greater than 25000 nM.
For the compound `Nc1nc2c(ncn2[C@@H]2O[C@@H]3CNS(=O)(=O)O[C@H]4C[C@H](n5cnc6c(N)ncnc65)O[C@@H]4COP(=O)(S)O[C@@H]2C3)c(=O)[nH]1` (single isomer, unassigned) [Compound I-2a], the half-maximal effective concentration (EC50) in assay [1] is greater than 25000 nM. Also, the half-inhibitory concentration (IC50) at Human STING was greater than 100000 nM.
Consider `Nc1nc2c(ncn2[C@@H]2O[C@@H]3CNS(=O)(=O)O[C@H]4C[C@H](n5cnc6c(N)ncnc65)O[C@@H]4COP(=O)(S)O[C@@H]2C3)c(=O)[nH]1` (single isomer, unassigned) [Compound I-2b], for which the EC50 in assay [1] was in the range of 10000 to 25000 nM. At Human STING, this compound yielded an IC50 of 10000 to 100000 nM.
Regarding `Nc1nc2c(ncn2[C@@H]2O[C@@H]3COP(=O)(S)O[C@H]4C[C@H](n5cnc6c(N)ncnc65)O[C@@H]4CNS(=O)(=O)O[C@@H]2C3)c(=O)[nH]1` (single isomer, unassigned) [Compound I-3], the EC50 in assay [1] (Homo sapiens, THP1-Dual, 20 h) was less than 1000 nM. The IC50 against Human STING was less than 1000 nM.
`Nc1nc2c(ncn2[C@@H]2O[C@@H]3COP(=O)(S)O[C@H]4[C@@H](F)[C@H](n5cnc6c(N)ncnc65)O[C@@H]4CNS(=O)(=O)O[C@@H]2C3)c(=O)[nH]1` (single isomer, unassigned) [Compound I-4a] came in with a concentration for a half-maximal effect (EC50) in assay [1] (Homo sapiens, THP1-Dual, 20 h) of less than 1000 nM. The same compound displayed an IC50 against Human STING of less than 1000 nM.
`Nc1nc2c(ncn2[C@@H]2O[C@@H]3COP(=O)(S)O[C@H]4[C@@H](F)[C@H](n5cnc6c(N)ncnc65)O[C@@H]4CNS(=O)(=O)O[C@@H]2C3)c(=O)[nH]1` (single isomer, unassigned) [Compound I-4b]: the EC50 in assay [1] is less than 1000 nM. For the same compound, the IC50 at Human STING is less than 1000 nM.
As for `Nc1nc2c(ncn2[C@@H]2O[C@@H]3CNS(=O)(=O)O[C@H]4C[C@H](n5cnc6cncnc65)C[C@@H]4COP(=O)(S)O[C@@H]2C3)c(=O)[nH]1` (single isomer, unassigned) [Compound I-6], in assay [1] (Homo sapiens, THP1-Dual, 20 h), the EC50 is greater than 25000 nM. This compound also displayed an IC50 against Human STING greater than 100000 nM.
On to `Nc1nc2c(ncn2[C@@H]2O[C@@H]3COP(=O)(S)O[C@H]4C[C@H](n5nnc6cncnc65)C[C@@H]4CNS(=O)(=O)O[C@@H]2C3)c(=O)[nH]1` (single isomer, unassigned) [Compound I-7], for which, in assay [1] (Homo sapiens, THP1-Dual, 20 h), the EC50 is greater than 25000 nM. Also, the half-maximal inhibitory concentration (IC50) on Human STING was 10000 to 100000 nM.
In turn, `Nc1nc2c(ncn2[C@@H]2O[C@@H]3COP(=O)(S)O[C@H]4C[C@H](n5cnc6cncnc65)C[C@@H]4CNS(=O)(=O)O[C@@H]2C3)c(=O)[nH]1` (single isomer, unassigned) [Compound I-8] showed an EC50 in assay [1] (Homo sapiens, THP1-Dual, 20 h) of 1000 to 10000 nM. The same compound came in with a half-inhibitory concentration (IC50) at Human STING of 1000 to 10000 nM.
In assay [1] (Homo sapiens, THP1-Dual, 20 h), `Nc1nc2c(ncn2[C@@H]2O[C@@H]3COP(=O)(S)O[C@H]4[C@@H](F)[C@H](n5cnc6cncnc65)O[C@@H]4CNS(=O)(=O)O[C@@H]2[C@@H]3F)c(=O)[nH]1` (single isomer, unassigned) [Compound I-10] had an EC50 of less than 1000 nM. At Human STING, the IC50 is less than 1000 nM.
In turn, `Nc1nc2c(ncn2[C@@H]2O[C@@H]3COP(=O)(S)O[C@H]4[C@@H](F)[C@H](n5cnc6cncnc65)O[C@@H]4CNS(=O)(=O)O[C@@H]2C3)c(=O)[nH]1` (single isomer, unassigned) [Compound I-11a] registered an EC50 in assay [1] (Homo sapiens, THP1-Dual, 20 h) of less than 1000 nM. The IC50 against Human STING was less than 1000 nM.
In assay [1], `Nc1nc2c(ncn2[C@@H]2O[C@@H]3COP(=O)(S)O[C@H]4[C@@H](F)[C@H](n5cnc6cncnc65)O[C@@H]4CNS(=O)(=O)O[C@@H]2C3)c(=O)[nH]1` (single isomer, unassigned) [Compound I-11b] registered a 50% effective concentration (EC50) of less than 1000 nM.
Compound `Nc1nc2c(ncn2[C@@H]2O[C@@H]3COS(=O)(=O)N[C@H]4C[C@H](n5cnc6c(N)ncnc65)O[C@@H]4COP(=O)(S)O[C@@H]2C3)c(=O)[nH]1` (single isomer, unassigned) [Compound I-12a] had an EC50 in assay [1] (Homo sapiens, THP1-Dual, 20 h) of less than 1000 nM. Further, the IC50 against Human STING is less than 1000 nM.
With `Nc1nc2c(ncn2[C@@H]2O[C@@H]3COS(=O)(=O)N[C@H]4C[C@H](n5cnc6c(N)ncnc65)O[C@@H]4COP(=O)(S)O[C@@H]2C3)c(=O)[nH]1` (single isomer, unassigned) [Compound I-12b], in assay [1] (Homo sapiens, THP1-Dual, 20 h), the EC50 is greater than 25000 nM. For the same compound, on Human STING, the IC50 was 1000 to 10000 nM.
`Nc1nc2c(ncn2[C@@H]2O[C@@H]3COP(=O)(S)O[C@H]4[C@@H](F)[C@H](n5cnc6cncnc65)O[C@@H]4CNS(=O)(=O)O[C@@H]2[C@@H]3OCC(F)(F)F)c(=O)[nH]1` (single isomer, unassigned) [Compound I-13a] had a concentration for a half-maximal effect (EC50) in assay [1] (Homo sapiens, THP1-Dual, 20 h) of less than 1000 nM. At Human STING, the IC50 was less than 1000 nM.
In assay [1], `Nc1nc2c(ncn2[C@@H]2O[C@@H]3COP(=O)(S)O[C@H]4[C@@H](F)[C@H](n5cnc6cncnc65)O[C@@H]4CNS(=O)(=O)O[C@@H]2[C@@H]3OCC(F)(F)F)c(=O)[nH]1` (single isomer, unassigned) [Compound I-13b] had an EC50 of less than 1000 nM. On Human STING, the IC50 was less than 1000 nM.
In the case of `Nc1nc2c(ncn2[C@@H]2O[C@@H]3CO[P@](=O)(S)O[C@@H]4[C@@H](CNS(=O)(=O)O[C@@H]2C3)C[C@@H](n2cnc3cncnc32)[C@@H]4F)c(=O)[nH]1` (single isomer, unassigned) [Compound I-14], the EC50 in assay [1] is less than 1000 nM. Further, on Human STING, the IC50 is less than 1000 nM.
Turning to `Nc1nc2c(ncn2[C@@H]2O[C@@H]3COP(=O)(S)O[C@H]4[C@@H](F)[C@H](n5cnc6c(=O)[nH]cnc65)O[C@@H]4CNS(=O)(=O)O[C@@H]2C3)c(=O)[nH]1` (single isomer, unassigned) [Compound I-15], the EC50 in assay [1] (Homo sapiens, THP1-Dual, 20 h) was less than 1000 nM.
As for `Nc1nc2c(ncn2[C@@H]2O[C@@H]3COP(=O)(S)O[C@H]4[C@@H](F)[C@H](n5cnc6c(N)ncnc65)O[C@@H]4CNS(=O)(=O)O[C@@H]2[C@@H]3F)c(=O)[nH]1` (single isomer, unassigned) [Compound I-16], the EC50 in assay [1] (Homo sapiens, THP1-Dual, 20 h) is less than 1000 nM. The compound also yielded a concentration for half-maximal inhibition (IC50) at Human STING of less than 1000 nM.
In assay [1] (Homo sapiens, THP1-Dual, 20 h), `Nc1nc2c(ncn2[C@@H]2O[C@@H]3COS(=O)(=O)N[C@H]4[C@@H](F)[C@H](n5cnc6c(N)ncnc65)O[C@@H]4COP(=O)(S)O[C@@H]2C3)c(=O)[nH]1` (single isomer, unassigned) [Compound I-17] had an EC50 of less than 1000 nM. This compound displayed an IC50 at Human STING of less than 1000 nM.
On to `Cn1cc([C@@H]2O[C@@H]3CNS(=O)(=O)O[C@@H]4C[C@@H](COP(=O)(S)O[C@H]3[C@H]2F)O[C@H]4n2cnc3c(=O)[nH]c(N)nc32)c2ncnc(N)c21` (single isomer, unassigned) [Compound I-19], for which the EC50 in assay [1] (Homo sapiens, THP1-Dual, 20 h) is greater than 25000 nM. The compound also displayed an IC50 on Human STING of 1000 to 10000 nM.
Taken in the same sequence, the figures for `Nc1ncnc2c1ncn2[C@@H]1O[C@@H]2CNS(=O)(=O)O[C@@H]3C[C@@H](COP(=O)(S)O[C@H]2[C@H]1F)O[C@H]3n1cc(F)c2c(=O)[nH]cnc21` (single isomer, unassigned) [Compound I-20] were 1000 to 10000 nM and less than 1000 nM.
With `Nc1nc2c(ncn2[C@@H]2O[C@@H]3COP(=O)(O)O[C@H]4C[C@H](n5cnc6c(N)ncnc65)O[C@@H]4CNS(=O)(=O)O[C@@H]2C3)c(=O)[nH]1` [Compound I-5, 2-amino-9-[(5S,7R,8R,12aR,14R,15aS)-14-(6-amino-9H-purin-9-yl)-2-hydroxy-2,10,10-trioxidodecahydro-5,8-methanofuro[2,3-m][1,3,6,9,10,11,2]tetraoxathiazaphosphacyclotetradecin-7-yl]-1,9-dihydro-6H-purin-6-one], in assay [1] (Homo sapiens, THP1-Dual, 20 h), the EC50 is less than 1000 nM. Moreover, the IC50 against Human STING fell in the range of 1000 to 10000 nM.

For the origin of these results see patent US20250262298A1, “STING MODULATOR COMPOUNDS WITH SULFAMATE LINKAGES, AND METHODS OF MAKING AND USING” (TAKEDA PHARMACEUTICAL COMPANY LIMITED, priority 2018, published 2025).
